Read-outs that look alike come from different tables or passages of the source.
Key:
[1] = test system: β-lactamase expressing P. mirabilis; experiment: broth microdilution MIC of cefiderocol +/- Compound 1, P. mirabilis strain; assay type: cell-based; details: Proteus mirabilis, read-out: Minimum inhibitory concentration (MIC), P. mirabilis CDC-159 (NDM)
[2] = test system: β-lactamase expressing E. cloacae; experiment: broth microdilution MIC of cefiderocol +/- Compound 1, E. cloacae strains; assay type: cell-based; details: Enterobacter cloacae
[3] = test system: metallo- and serine-β-lactamase expressing CRE; experiment: checkerboard assay of cefiderocol and Compound 1 in IDM, 22 CRE isolates; assay type: cell-based, Enterobacteriaceae; details: Compound 1 0 μg/mL
[4] = test system: carbapenem resistant Enterobacteriaceae (CRE); experiment: MIC of cefiderocol with Compound 1 vs approved BL/BLI combinations, 120 CRE isolates
Procedure: A panel of 30 strains of characterized Enterobacteriaceae isolates produce Ambler class A, B, C, and D β-lactamase were used. […] IDM was prepared by adding 100 g of chelex (a chelating agent) to 1 L of sterile CAMBH and stirring for 2 hours. The chelex treated media was then filtered using a 0.2 μm filter and divalent Ca, Mg, and Zn are added back at relevant concentrations. The pH was adjusted to 7.2 using HCl and the media was filtered again to ensure sterility. This created a medium that was devoid of iron but retains appropriate concentration of other cations and was necessary for evaluating the activity of cefiderocol originating from its uptake by bacterial iron transporters. Bacteria strains were grown for 3-5 hours in CAMHB and IDM. Cefiderocol was added either to a microtiter plate in 2-fold serial dilutions in CAMHB and in parallel in IDM. […] Once the test articles were added the plates were inoculated according to CLSI broth microdilution method.
The challenge set of organisms consisted of a variety of Enterobacteriaceae species expressing IMP (n=30), NDM (30), VIM (15), KPC (n=30), and AmpC (n=15).

CC(C)(O/N=C(\C(=O)N[C@@H]1C(=O)N2C(C(=O)[O-])=C(C[N+]3(CCNC(=O)c4ccc(O)c(O)c4Cl)CCCC3)CS[C@H]12)c1csc(N)n1)C(=O)O [FDC, cefiderocol]
MIC ([1]; IDM): 4 µg/mL
MIC ([1]; MHBII): 32 µg/mL
MIC ([2]; read-out: Minimum inhibitory concentration (MIC), E. cloacae CDC-93 (KPC), IDM): 0.5 µg/mL
MIC ([2]; read-out: Minimum inhibitory concentration (MIC), E. cloacae CDC-93 (KPC), MHBII): 1 µg/mL
MIC ([2]; read-out: Minimum inhibitory concentration (MIC), E. cloacae CDC-161 (IMP), IDM): 1 µg/mL
MIC ([2]; read-out: Minimum inhibitory concentration (MIC), E. cloacae CDC-161 (IMP), MHBII): 16 µg/mL
MIC ([2]; read-out: Minimum inhibitory concentration (MIC), E. cloacae Entb239 (p99 AmpC, KPC-3, CTXM-15, GES-1, IMI-1), IDM): 2 µg/mL
MIC ([2]; read-out: Minimum inhibitory concentration (MIC), E. cloacae Entb239 (p99 AmpC, KPC-3, CTXM-15, GES-1, IMI-1), MHBII): 1 µg/mL
% of strains inhibited ([3]; cefiderocol 0.06 μg/mL): 5%
% of strains inhibited ([3]; cefiderocol 0.125 μg/mL): 5%
% of strains inhibited ([3]; cefiderocol 0.25 μg/mL): 5%
% of strains inhibited ([3]; cefiderocol 0.5 μg/mL): 15%
% of strains inhibited ([3]; cefiderocol 1 μg/mL): 20%
% of strains inhibited ([3]; cefiderocol 2 μg/mL): 60%
% of strains inhibited ([3]; cefiderocol 4 μg/mL): 75%
% of strains inhibited ([3]; cefiderocol 8 μg/mL): 90%
% of strains inhibited ([3]; cefiderocol 16 μg/mL): 90%
% of strains inhibited ([3]; cefiderocol 32 μg/mL): 95%
MIC [4]: 0.059 µg/mL
MIC50 [4]: 1 µg/mL
MIC90 [4]: 8 µg/mL
MIC ([4]; Enterobacter cloacae, Enterobacter cloacae 1207515 (NDM-6), IDM): 64 µg/mL
MIC ([4]; Enterobacter cloacae, Enterobacter cloacae 1212159 (NDM-6), IDM): 16 µg/mL
MIC ([4]; Enterobacter cloacae, Enterobacter cloacae 1212160 (NDM-6), IDM): 16 µg/mL
MIC ([4]; Enterobacter cloacae, Enterobacter cloacae 1256568 (VIM-23), IDM): 0.125 µg/mL
MIC ([4]; Enterobacter cloacae, Enterobacter cloacae 1284042 (VIM-5), IDM): 8 µg/mL
MIC ([4]; Enterobacter cloacae, Enterobacter cloacae 1284044 (VIM-5), IDM): 4 µg/mL
MIC ([4]; Enterobacter cloacae, Enterobacter cloacae 1284065 (VIM-5), IDM): 4 µg/mL
MIC ([4]; Enterobacter cloacae, Enterobacter cloacae 1284066 (VIM-5), IDM): 32 µg/mL
MIC ([4]; Enterobacter cloacae, Enterobacter cloacae 1455568 (NDM-4), IDM): 16 µg/mL
MIC ([4]; Enterobacter cloacae, Enterobacter cloacae 1488830 (IMP-14), IDM): 2 µg/mL
MIC ([4]; Enterobacter cloacae, Enterobacter cloacae 1490669 (IMP-4), IDM): 0.25 µg/mL
MIC ([4]; Enterobacter cloacae, Enterobacter cloacae 1590932 (VIM-4), IDM): 2 µg/mL
MIC ([4]; Enterobacter cloacae, Enterobacter cloacae 1703478 (IMP-4), IDM): 0.125 µg/mL
MIC ([4]; Enterobacter cloacae, Enterobacter cloacae IHMA 908146 (ACT-1, CTX-M-22, IMP), IDM): 0.125 µg/mL
MIC ([4]; Escherichia coli, Escherichia coli 128 (AmpC, SHV-12, TOHO-2, TEM-1), IDM): 0.5 µg/mL
MIC ([4]; Escherichia coli, Escherichia coli 233 (AmpC, SHV-2, KPC-3, CTX-M-15 and TEM-1), IDM): 1 µg/mL
MIC ([4]; Escherichia coli, Escherichia coli 469 (AmpC, SHV-12, TEM-1), IDM): 0.5 µg/mL
MIC ([4]; Escherichia coli, Escherichia coli 3073 (AmpC, CTX-M-3), IDM): 1 µg/mL
MIC ([4]; Escherichia coli, Escherichia coli 3102 (AmpC, CTX-M-15, TEM-1), IDM): 0.059 µg/mL
MIC ([4]; Escherichia coli, Escherichia coli 54321 (AmpC, CTX-M-15, TEM-1), IDM): 2 µg/mL
MIC ([4]; Escherichia coli, Escherichia coli 64167 (AmpC, TEM-1, GES-5), IDM): 0.25 µg/mL
MIC ([4]; Escherichia coli, Escherichia coli 786978 (KPC-2), IDM): 0.5 µg/mL
MIC ([4]; Escherichia coli, Escherichia coli 1266865 (NDM-5), IDM): 8 µg/mL
MIC ([4]; Escherichia coli, Escherichia coli 1275629 (VIM-23), IDM): 0.5 µg/mL
MIC ([4]; Escherichia coli, Escherichia coli 1275635 (VIM-23), IDM): 0.5 µg/mL
MIC ([4]; Escherichia coli, Escherichia coli 1371539 (NDM-6), IDM): 2 µg/mL
MIC ([4]; Escherichia coli, Escherichia coli 1424126 (NDM-5), IDM): 128 µg/mL
MIC ([4]; Escherichia coli, Escherichia coli 1438691 (NDM-5), IDM): 16 µg/mL
MIC ([4]; Escherichia coli, Escherichia coli 1438767 (NDM-5), IDM): 128 µg/mL
MIC ([4]; Escherichia coli, Escherichia coli 1468388 (IMP-59), IDM): 2 µg/mL
MIC ([4]; Escherichia coli, Escherichia coli CH1 (AmpC, TEM-1, CTX-M-15, SHV-5, SHV-1), IDM): 0.25 µg/mL
MIC ([4]; Escherichia coli, Escherichia coli EC15521A (AmpC, CMY-2, TEM-1), IDM): 4 µg/mL
MIC ([4]; Escherichia coli, Escherichia coli EC15522A (AmpC, CMY-2, TEM-1, CTX-M-15), IDM): 0.059 µg/mL
MIC ([4]; Escherichia coli, Escherichia coli J53 (SHV-5, AmpC, TEM-1), IDM): 0.03 µg/mL
MIC ([4]; Escherichia coli, Escherichia coli SI-LP505 (AmpC, CTX-M-14, TEM-1), IDM): 0.5 µg/mL
MIC ([4]; Escherichia coli, Escherichia coli SI-LP574 (AmpC, CTX-M-14, TEM-1), IDM): 0.059 µg/mL
MIC ([4]; Escherichia coli, Escherichia coli SI-P026 (AmpC, CMY-2, TEM-1), IDM): 0.059 µg/mL
MIC ([4]; Escherichia coli, Escherichia coli SI-Vr059 (AmpC, CTX-M-32 and TEM-1), IDM): 2 µg/mL
MIC ([4]; Klebsiella aerogenes, Enterobacter aerogenes 847438 (CTX-M-2, KPC), IDM): 0.059 µg/mL
MIC ([4]; Klebsiella aerogenes, Enterobacter aerogenes CDC-0161 (IMP-4, TEM-1B, OXA-1, SFO-1), IDM): 2 µg/mL
MIC ([4]; Klebsiella aerogenes, Enterobacter aerogenes IHMA 846505 (CMY-2, IMP), IDM): 0.5 µg/mL
MIC ([4]; Klebsiella aerogenes, Enterobacter aerogenes IHMA 890184 (IMP), IDM): 0.059 µg/mL
MIC ([4]; Klebsiella oxytoca, Klebsiella oxytoca 847537 (KPC-2), IDM): 1 µg/mL
MIC ([4]; Klebsiella oxytoca, Klebsiella oxytoca 847539 (CTX-M-2, KPC), IDM): 1 µg/mL
MIC ([4]; Klebsiella oxytoca, Klebsiella oxytoca 1274060 (IMP-4), IDM): 0.059 µg/mL
MIC ([4]; Klebsiella oxytoca, Klebsiella oxytoca 1417076 (IMP-8), IDM): 4 µg/mL
MIC ([4]; Klebsiella oxytoca, Klebsiella oxytoca 1417077 (IMP-8), IDM): 4 µg/mL
MIC ([4]; Klebsiella oxytoca, Klebsiella oxytoca 1585615 (IMP-4), IDM): 0.25 µg/mL
MIC ([4]; Klebsiella oxytoca, Klebsiella oxytoca 1622674 (VIM-44), IDM): 1 µg/mL
MIC ([4]; Klebsiella oxytoca, Klebsiella oxytoca IHMA 871515 (IMP, KPC-2, SHV-12), IDM): 1 µg/mL
MIC ([4]; Klebsiella oxytoca, Klebsiella oxytoca IHMA 871516 (IMP, KPC-2, SHV-12), IDM): 0.059 µg/mL
MIC ([4]; Klebsiella oxytoca, Klebsiella oxytoca IHMA 871518 (IMP, KPC-2, SHV-12), IDM): 1 µg/mL
MIC ([4]; Klebsiella pneumoniae, Klebsiella pneumoniae 845661 (KPC-3), IDM): 1 µg/mL
MIC ([4]; Klebsiella pneumoniae, Klebsiella pneumoniae 845662 (KPC-3), IDM): 4 µg/mL
MIC ([4]; Klebsiella pneumoniae, Klebsiella pneumoniae 845665 (KPC-3), IDM): 1 µg/mL
MIC ([4]; Klebsiella pneumoniae, Klebsiella pneumoniae 845667 (KPC-3), IDM): 1 µg/mL
MIC ([4]; Klebsiella pneumoniae, Klebsiella pneumoniae 845670 (KPC-3), IDM): 0.25 µg/mL
MIC ([4]; Klebsiella pneumoniae, Klebsiella pneumoniae 845904 (KPC-3), IDM): 2 µg/mL
